Measurements published in patent EP0140395A1, “Water soluble derivatives of 1-(2-hydroxyethyl)-2-methyl-5-nitro-imidazole having therapeutical activity, process for its preparation and related pharmaceutical compositions” (Pietro Isnardi & C. Spa, priority 1983, dated 1985).
Converted amounts (≈) assume the structure as drawn. One block for each molecule: values may come before it.

Columns and labels:
Kinetic tests in the rat = assay type: in vivo
[1] = Solubility of the compound; assay type: physicochemical
Trichomonas vaginalis = assay: Minimum inhibiting concentration in five strains, in comparison with metronidazole; assay type: cell-based; conditions: for MIC: average over five strains of Trichomonas vaginalis, metronidazole as 1 mg/ml solution in dimethyl sulfoxide, compound of the invention as 1 mg/ml water solution
Procedure: The minimum inhibiting concentration (MIC) was investigated in five strains of Trichomonas vaginalis, in comparison with metronidazole.
Metronidazole was tested in form of a solution in dimethyl sulfoxide at a concentration of 1 mg/ml whereas the compound of the invention was tested in form of a water solution at a concentration of 1 mg/ml.

[2] = Toxicity (LD50) in the mouse; conditions: in vivo
Source text: (§1) The compound of the invention has been pharmacologically tested.
(§2) As regards the toxicity the following results were found: […]

[3] = Toxicity (LD50) in the rat; conditions: in vivo
Source text: as §1, §2

SMILES: Cc1ncc([N+](=O)[O-])n1CCOC(=O)NCCCCC(N)C(=O)O (centres unmarked) [compound of the invention, N-(5-carboxy-5-aminopentan)-carbamic ester of 1-(2-hydroxyethyl)-2-methyl-5-nitro-imidazole]
conversion into metronidazole (Kinetic tests in the rat; in the organism and in acidic environment): not converted into metronidazole neither in the organism nor in acidic environnment | dose excreted (Kinetic tests in the rat; urine, after parenteral administration, read-out: urinary excretion): < 30% | solubility in anhydrous alcohols, acetone and chloroform ([1]; anhydrous alcohols, acetone and chloroform): insoluble | solubility in water ([1]; water): perfectly soluble in water | MIC (Trichomonas vaginalis): 2.5 µg/mL (≈ 7.28 µM) | microbiological activity (Trichomonas vaginalis; preliminary tests, compared with metronidazole): greater microbiological activity | LD50 ([2]; ip): > 4000 mg/kg | LD50 ([2]; po, per os): > 4000 mg/kg | LD50 ([3]; ip): 870 mg/kg | LD50 ([3]; po, per os): 1620 mg/kg

MIC (Trichomonas vaginalis): 5 µg/mL (≈ 29.2 µM)
SMILES: Cc1ncc([N+](=O)[O-])n1CCO [metronidazole, 1-(2-hydroxyethyl)-2-methyl-5-nitro-imidazole]
